# Reference: patent US11566007B2, “Ras inhibitors” (Revolution Medicines, Inc., priority 2019, dated 2023)
# Like-named read-outs stand apart in the source and are kept apart here.
# How the values were obtained:
# [1] = 18-membered ring
# NRAS Q61R = NRAS Q61R (Homo sapiens (Human), UniProt P01111+P62937, Q61R); assay: Ras-Raf (BRAF RBD) disruption / FRET / MOA assay, NRAS Q61R; type: biochemical; conditions: NRAS Q61R; Ras-Raf disruption/FRET/MOA assay; read-out: IC50* NRAS Q61R FRET data
# Summary of the method: (§1)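 Compounds were tested as a 10-point 3-fold dilution series from 30 μM final for their ability to drive ternary complex formation between nucleotide-loaded Ras and cyclophilin A, displacing the BRAF RBD. After 3 h at 25° C., anti-His Eu-W1024 (10 nM) and anti-GST allophycocyanin (50 nM) were added for 1.5 h. A TR-FRET ratio decrease versus DMSO gave IC50.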
# NCI-H358 (K-Ras G12C) = assay: CellTiter-Glo cell viability assay, NCI-H358; type: cell-based, human; conditions: Homo sapiens, NCI-H358, 120 h, NCI-H358, 5-day treatment; class symbols; read-out: Additional H358 Cell Viability assay data (K-Ras G12C, IC50)
# Summary of the method: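 Four-parameter logistic fits were applied to luminescence data normalized against DMSO-treated wells. Readings were taken on day 5 following direct compound addition, after roughly 30 minutes at room temperature.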
# KRAS G13D = KRAS G13D (Homo sapiens (Human), UniProt P01116+P62937, G13D); assay: Ras-Raf (BRAF RBD) disruption / FRET / MOA assay, KRAS G13D; type: biochemical; conditions: read-out: IC50* KRAS G13D FRET data
# Sequence of KRAS G13D (P01116-2 other isoform, or with tags, fused parts or gaps G13D): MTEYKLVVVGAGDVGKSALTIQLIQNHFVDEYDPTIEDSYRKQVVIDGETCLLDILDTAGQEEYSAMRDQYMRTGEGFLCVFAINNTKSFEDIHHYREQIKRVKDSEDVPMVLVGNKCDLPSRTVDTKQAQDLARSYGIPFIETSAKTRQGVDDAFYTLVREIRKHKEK
# Sequence of KRAS G13D (P62937 whole entry): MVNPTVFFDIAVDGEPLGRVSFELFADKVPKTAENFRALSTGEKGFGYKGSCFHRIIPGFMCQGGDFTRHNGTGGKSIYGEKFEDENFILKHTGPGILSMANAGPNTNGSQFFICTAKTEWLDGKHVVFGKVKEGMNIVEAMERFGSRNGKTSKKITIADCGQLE
# Summary of the method: (§2)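 Ternary complex formation (Ras–compound–cyclophilin A) displacing BRAF RBD, monitored by TR-FRET. Three hours at 25° C with compound (top 30 μM final), then 1.5 h with the labelled antibodies. Lower ratio than DMSO indicates disruption; IC50 reported.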
# K-Ras G12C = K-Ras G12C (Homo sapiens (Human), UniProt P01116+P62937, G12C); assay: Ras-Raf (BRAF RBD) disruption / FRET / MOA assay, KRAS G12C; type: biochemical; conditions: KRAS G12C; Ras-Raf disruption/FRET/MOA assay; read-out: IC50* KRAS G12C FRET data
# Sequence of K-Ras G12C (P01116-2 other isoform, or with tags, fused parts or gaps G12C): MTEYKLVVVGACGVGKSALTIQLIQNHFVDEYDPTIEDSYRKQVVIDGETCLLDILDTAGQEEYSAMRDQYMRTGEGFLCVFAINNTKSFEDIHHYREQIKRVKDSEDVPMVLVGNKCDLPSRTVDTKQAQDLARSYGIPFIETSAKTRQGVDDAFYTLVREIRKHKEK
# Sequence of K-Ras G12C (P62937 whole entry): as the sequence (P62937 whole entry) above
# Summary of the method: as §2
# KRAS G12V = KRAS G12V (Homo sapiens (Human), UniProt P01116+P62937, G12V); assay: Ras-Raf (BRAF RBD) disruption / FRET / MOA assay, KRAS G12V; type: biochemical; conditions: read-out: IC50* KRAS G12V FRET data
# Sequence of KRAS G12V (P01116-2 other isoform, or with tags, fused parts or gaps G12V): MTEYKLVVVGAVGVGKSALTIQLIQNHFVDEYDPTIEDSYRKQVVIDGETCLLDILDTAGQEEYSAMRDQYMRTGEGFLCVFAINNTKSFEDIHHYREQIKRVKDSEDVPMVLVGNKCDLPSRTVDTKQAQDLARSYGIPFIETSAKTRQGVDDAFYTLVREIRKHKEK
# Sequence of KRAS G12V (P62937 whole entry): as the sequence (P62937 whole entry) above
# Summary of the method: as §2
# NRAS G12C = NRAS G12C (Homo sapiens (Human), UniProt P01111+P62937, G12C); assay: Ras-Raf (BRAF RBD) disruption / FRET / MOA assay, NRAS G12C; type: biochemical; conditions: read-out: IC50* NRAS G12C FRET data
# Sequence of NRAS G12C (P01111 whole entry G12C): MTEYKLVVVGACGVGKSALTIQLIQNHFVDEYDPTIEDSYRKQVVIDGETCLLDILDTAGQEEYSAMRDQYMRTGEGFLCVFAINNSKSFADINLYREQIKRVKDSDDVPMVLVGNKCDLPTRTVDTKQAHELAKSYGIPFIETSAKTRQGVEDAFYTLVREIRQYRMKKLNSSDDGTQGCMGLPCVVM
# Sequence of NRAS G12C (P62937 whole entry): as the sequence (P62937 whole entry) above
# Summary of the method: as §2
# KRAS Q61H = KRAS Q61H (Homo sapiens (Human), UniProt P01116+P62937, Q61H); assay: Ras-Raf (BRAF RBD) disruption / FRET / MOA assay, KRAS Q61H; type: biochemical; conditions: Ras-Raf disruption/FRET/MOA assay; class symbols; read-out: KRAS Q61H FRET data IC50
# Sequence of KRAS Q61H (P01116-2 other isoform, or with tags, fused parts or gaps Q61H): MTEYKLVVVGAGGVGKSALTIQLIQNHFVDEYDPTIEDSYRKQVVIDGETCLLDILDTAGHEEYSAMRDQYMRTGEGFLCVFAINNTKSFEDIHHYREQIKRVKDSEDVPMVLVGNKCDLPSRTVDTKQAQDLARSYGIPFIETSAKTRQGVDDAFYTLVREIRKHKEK
# Sequence of KRAS Q61H (P62937 whole entry): as the sequence (P62937 whole entry) above
# Summary of the method: as §1
# KRAS WT = KRAS WT (Homo sapiens (Human), UniProt P01116+P62937); assay: Ras-Raf (BRAF RBD) disruption / FRET / MOA assay, KRAS WT; type: biochemical; conditions: read-out: IC50* KRAS WT FRET data
# Sequence of KRAS WT (P01116-2 other isoform, or with tags, fused parts or gaps): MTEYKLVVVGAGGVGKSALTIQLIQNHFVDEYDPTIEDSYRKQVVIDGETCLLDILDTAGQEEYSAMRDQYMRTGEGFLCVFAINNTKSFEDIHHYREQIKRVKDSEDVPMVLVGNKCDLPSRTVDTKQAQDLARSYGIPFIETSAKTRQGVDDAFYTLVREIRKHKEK
# Sequence of KRAS WT (P62937 whole entry): as the sequence (P62937 whole entry) above
# Summary of the method: as §2
# NRAS Q61K = NRAS Q61K (Homo sapiens (Human), UniProt P01111+P62937, Q61K); assay: Ras-Raf (BRAF RBD) disruption / FRET / MOA assay, NRAS Q61K; type: biochemical; conditions: NRAS Q61K; Ras-Raf disruption/FRET/MOA assay; read-out: IC50* NRAS Q61K FRET data
# Sequence of NRAS Q61K (P01111 whole entry Q61K): as the sequence (P01111 whole entry G12C) above, with C12G, Q61K counted along it
# Sequence of NRAS Q61K (P62937 whole entry): as the sequence (P62937 whole entry) above
# Summary of the method: as §1
# NRAS WT = NRAS WT (Homo sapiens (Human), UniProt P01111+P62937); assay: Ras-Raf (BRAF RBD) disruption / FRET / MOA assay, NRAS WT; type: biochemical; conditions: read-out: IC50* NRAS WT FRET data
# Sequence of NRAS WT (P01111 whole entry): as the sequence (P01111 whole entry G12C) above, with C12G counted along it
# Sequence of NRAS WT (P62937 whole entry): as the sequence (P62937 whole entry) above
# Summary of the method: as §1
# KRAS G12S = KRAS G12S (Homo sapiens (Human), UniProt P01116+P62937, G12S); assay: Ras-Raf (BRAF RBD) disruption / FRET / MOA assay, KRAS G12S; type: biochemical; conditions: Ras-Raf disruption/FRET/MOA assay; class symbols; read-out: KRAS G12S FRET data IC50
# Sequence of KRAS G12S (P01116-2 other isoform, or with tags, fused parts or gaps G12S): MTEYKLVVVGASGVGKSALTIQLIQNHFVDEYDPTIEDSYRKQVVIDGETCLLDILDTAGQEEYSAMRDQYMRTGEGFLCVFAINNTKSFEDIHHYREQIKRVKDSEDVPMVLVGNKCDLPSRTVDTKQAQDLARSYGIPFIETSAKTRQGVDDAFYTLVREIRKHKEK
# Sequence of KRAS G12S (P62937 whole entry): as the sequence (P62937 whole entry) above
# Summary of the method: as §2
# K-Ras G13C = K-Ras G13C (Homo sapiens (Human), UniProt P01116+P62937, G13C); assay: Ras-Raf (BRAF RBD) disruption / FRET / MOA assay, KRAS G13C; type: biochemical; conditions: KRAS G13C; Ras-Raf disruption/FRET/MOA assay; read-out: IC50* KRAS G13C FRET data
# Sequence of K-Ras G13C (P01116-2 other isoform, or with tags, fused parts or gaps G13C): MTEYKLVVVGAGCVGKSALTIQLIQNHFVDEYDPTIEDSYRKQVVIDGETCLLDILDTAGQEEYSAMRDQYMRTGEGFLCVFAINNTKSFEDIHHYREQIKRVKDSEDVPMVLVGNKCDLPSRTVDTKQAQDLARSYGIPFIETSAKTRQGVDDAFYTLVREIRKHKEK
# Sequence of K-Ras G13C (P62937 whole entry): as the sequence (P62937 whole entry) above
# Summary of the method: as §2
# KRAS G12D = KRAS G12D (Homo sapiens (Human), UniProt P01116+P62937, G12D); assay: Ras-Raf (BRAF RBD) disruption / FRET / MOA assay, KRAS G12D; type: biochemical; conditions: Ras-Raf disruption/FRET/MOA assay; class symbols; read-out: KRAS G12D FRET data IC50
# Sequence of KRAS G12D (P01116-2 other isoform, or with tags, fused parts or gaps G12D): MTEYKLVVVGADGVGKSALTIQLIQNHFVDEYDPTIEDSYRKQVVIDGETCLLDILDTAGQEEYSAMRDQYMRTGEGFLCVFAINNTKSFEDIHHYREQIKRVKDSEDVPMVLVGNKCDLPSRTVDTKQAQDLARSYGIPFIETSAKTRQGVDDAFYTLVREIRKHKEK
# Sequence of KRAS G12D (P62937 whole entry): as the sequence (P62937 whole entry) above
# Summary of the method: as §2
# Sequence of NRAS Q61R (P01111 whole entry Q61R): as the sequence (P01111 whole entry G12C) above, with C12G, Q61R counted along it
# Sequence of NRAS Q61R (P62937 whole entry): as the sequence (P62937 whole entry) above
molecule,measurement,setting,value
CC1(C)COC(=O)[C@@H]2CCCN(N2)C(=O)[C@@H](NC(=O)OC(C)(C)C)Cc2cccc(c2)-c2ccc3[nH]c(I)c(c3c2)C1,"ring closure, yield of all isomers","from CC(C)(CO)Cc1c(I)[nH]c2ccc(-c3cccc(C[C@H](NC(=O)OC(C)(C)C)C(=O)N4CCC[C@@H](C(=O)O)N4)c3)cc12, ester bond, EDCI/HOBt/DIPEA, DCM, 12.77 mM, 0.0 °C, 16.0 h",79.8%
same,"ring closure, isolated yield","[1]; from CC(C)(CO)Cc1c(I)[nH]c2ccc(-c3cccc(C[C@H](NC(=O)OC(C)(C)C)C(=O)N4CCC[C@@H](C(=O)O)N4)c3)cc12, ester bond, EDCI/HOBt/DIPEA, DCM, 12.8 mM, 0.0 °C",79.8%
CCn1c(-c2cccnc2[C@H](C)OC)c2c3cc(ccc31)-c1nc(co1)C[C@H](NC(=O)OC(C)(C)C)C(=O)N1CCC[C@H](N1)C(=O)OCC(C)(C)C2,"ring closure, yield of all isomers","from CCn1c(-c2cccnc2[C@H](C)OC)c(CC(C)(C)COC(=O)[C@@H]2CCCN(C(=O)[C@H](Cc3coc(Br)n3)NC(=O)OC(C)(C)C)N2)c2cc(B3OC(C)(C)C(C)(C)O3)ccc21, cc_pd bond, XPhos Pd G3/XPhos/K3PO4, dioxane, […], 70.0 °C, 4.0 h",56%
CCn1c(-c2cccnc2[C@H](C)OC)c2c3cc(ccc31)-c1nc(nn1C)C[C@H](NC(=O)OC(C)(C)C)C(=O)N1CCC[C@H](N1)C(=O)OCC(C)(C)C2,"ring closure, yield of all isomers","from CCn1c(-c2cccnc2[C@H](C)OC)c(CC(C)(C)COC(=O)[C@@H]2CCCN(C(=O)[C@H](Cc3nc(Br)n(C)n3)NC(=O)OC(C)(C)C)N2)c2cc(B3OC(C)(C)C(C)(C)O3)ccc21, cc_pd bond, XPhos Pd G3/XPhos/K3PO4, 1,4-dioxane, 71.7 mM, 75.0 °C, 3.0 h",56.8%
CCn1c(-c2cccnc2[C@H](C)OC)c2c3cc(ccc31)C1=CCCN(C1)CC(NC(=O)OC(C)(C)C)C(=O)N1CCC[C@H](N1)C(=O)OCC(C)(C)C2 (stereo partly shown),"ring closure, yield of all isomers","from CCn1c(-c2cccnc2[C@H](C)OC)c(CC(C)(C)CO)c2cc(C3=CCCN(CC(NC(=O)OC(C)(C)C)C(=O)N4CCC[C@@H](C(=O)O)N4)C3)ccc21, ester bond, EDCI.HCl/HOBt/DIPEA, DCM, 7.14 mM, 30.0 °C, 16.0 h",40%
CCn1c(-c2cccnc2[C@H](C)OC)c2c3cc(ccc31)N1CCO[C@@H](C[C@H](NC(=O)OCc3ccccc3)C(=O)N3CCC[C@H](N3)C(=O)OCC(C)(C)C2)C1,"ring closure, isolated yield","[1]; from CCn1c(-c2cccnc2[C@H](C)OC)c(CC(C)(C)CO)c2cc(N3CCO[C@@H](C[C@H](NC(=O)OCc4ccccc4)C(=O)N4CCC[C@@H](C(=O)O)N4)C3)ccc21, ester bond, EDCI/HOBt/DIPEA, DCM, 12.75 mM, 25.0 °C",66%
CCn1c(-c2cccnc2[C@H](C)OC)c2c3nc(ccc31)-c1csc(n1)C[C@H](NC(=O)OC(C)(C)C)C(=O)N1CCC[C@H](N1)C(=O)OCC(C)(C)C2,"ring closure, yield of all isomers","from CCn1c(-c2cccnc2[C@H](C)OC)c(CC(C)(C)CO)c2nc(-c3csc(C[C@H](NC(=O)OC(C)(C)C)C(=O)N4CCC[C@@H](C(=O)O)N4)n3)ccc21, ester bond, EDCI/HOBt/DIPEA, DCM, 6.4 mM, 25.0 °C, 16.0 h",43%
same,"ring closure, isolated yield","[1]; from CCn1c(-c2cccnc2[C@H](C)OC)c(CC(C)(C)CO)c2nc(-c3csc(C[C@H](NC(=O)OC(C)(C)C)C(=O)N4CCC[C@@H](C(=O)O)N4)n3)ccc21, ester bond, EDCI.HCl/HOBt/DIPEA, DCM, 6.4 mM",43%
CO[C@@H](C)c1ncc(N2CCN(C(=O)OCc3ccccc3)CC2)cc1-c1c2c3cc(ccc3n1CC(F)(F)F)-c1cccc(c1)C[C@H](NC(=O)OC(C)(C)C)C(=O)N1CCC[C@H](N1)C(=O)OCC(C)(C)C2,"ring closure, isolated yield","[1]; from CO[C@@H](C)c1ncc(N2CCN(C(=O)OCc3ccccc3)CC2)cc1-c1c(CC(C)(C)CO)c2cc(-c3cccc(C[C@H](NC(=O)OC(C)(C)C)C(=O)N4CCC[C@@H](C(=O)O)N4)c3)ccc2n1CC(F)(F)F, ester bond, EDCI/HOBt/DIPEA, DCM, 9.9 mM",67.9%
CO[C@@H](C)c1ncccc1-c1c2c3cc(ccc3n1CC(F)(F)F)N1CCO[C@@H](C[C@H](NC(=O)OCc3ccccc3)C(=O)N3CCC[C@H](N3)C(=O)OCC(C)(C)C2)C1,"ring closure, isolated yield","[1]; from CO[C@@H](C)c1ncccc1-c1c(CC(C)(C)CO)c2cc(N3CCO[C@@H](C[C@H](NC(=O)OCc4ccccc4)C(=O)N4CCC[C@@H](C(=O)O)N4)C3)ccc2n1CC(F)(F)F, ester bond, EDCI/HOBt/DIPEA, DCM, 11.25 mM",74%
C=CC(=O)N1CC[C@H](C(=O)N(C)[C@H](C(=O)NC2C[C@@H]3CN(CCO3)c3ccc4c(c3)c(c(-c3cccnc3[C@H](C)OC)n4CC)CC(C)(C)COC(=O)[C@@H]3CC(Br)CN(N3)C2=O)C(C)C)C1 (stereo partly shown) [Example A313],IC50,NRAS Q61R,> 10 µM
same,IC50,NCI-H358 (K-Ras G12C),> 1 µM
same,IC50,KRAS G13D,> 10 µM
same,IC50,K-Ras G12C,1 to 10 µM
same,IC50,KRAS G12V,> 10 µM
same,IC50,NRAS G12C,1 to 10 µM
same,IC50,KRAS Q61H,> 10 µM
same,IC50,KRAS WT,> 10 µM
same,IC50,NRAS Q61K,> 10 µM
same,IC50,NRAS WT,> 10 µM
same,IC50,KRAS G12S,> 10 µM
same,IC50,K-Ras G13C,> 10 µM
same,IC50,KRAS G12D,> 10 µM
C=CC(=O)N1CC[C@H](C(=O)N(C)[C@H](C(=O)N[C@H]2Cc3cccc(c3)-c3ccc4c(c3)c(c(-c3cnn(C5CCN(C)CC5)c3[C@H](C)OC)n4CC)CC(C)(C)COC(=O)[C@@H]3CCCN(N3)C2=O)C(C)C)C1 [Example A482],IC50,NRAS Q61R,> 10 µM
same,IC50,NCI-H358 (K-Ras G12C),0.1 to 1 µM
same,IC50,KRAS G13D,> 10 µM
same,IC50,K-Ras G12C,> 10 µM
same,IC50,KRAS G12V,> 10 µM
same,IC50,NRAS G12C,> 10 µM
same,IC50,KRAS Q61H,> 10 µM
same,IC50,KRAS WT,> 10 µM
same,IC50,NRAS Q61K,> 10 µM
same,IC50,NRAS WT,> 10 µM
same,IC50,KRAS G12S,> 10 µM
same,IC50,K-Ras G13C,> 10 µM
same,IC50,KRAS G12D,> 10 µM
"tert-butyl ((6^3S,4S)-1^1-ethyl-1^2-(2-((S)-1-methoxyethyl)pyridin-3-yl)-10,10-dimethyl-5,7-dioxo-6^1,6^2,6^3,6^4,6^5,6^6-hexahydro-1^1H-8-oxa-2(5,2)-oxazola-1(5,3)-indola-6(1,3)-pyridazinacycloundecaphane-4-yl)carbamate","ring closure, isolated yield","[1]; ester bond, EDCI/HOBt/DIPEA, DCM, 13.7 mM, 0.0 °C",56.4%
"tert-butyl ((6^3S,4S)-1^1-ethyl-1^2-(2-(methoxymethyl)phenyl)-10,10-dimethyl-2^5-nitro-5,7-dioxo-6^1,6^2,6^3,6^4,6^5,6^6-hexahydro-1^1H-8-oxa-1(5,3)-indola-6(1,3)-pyridazina-2(1,3)-benzenacycloundecaphane-4-yl)carbamate","ring closure, isolated yield","[1]; ester bond, EDCI/HOBt/DIPEA, DCM, 6.4 mM",73%
"tert-butyl ((6^3S,4S)-2^5-(difluoromethyl)-1^1-ethyl-1^2-(2-((S)-1-methoxyethyl)pyridin-3-yl)-10,10-dimethyl-5,7-dioxo-6^1,6^2,6^3,6^4,6^5,6^6-hexahydro-1^1H-8-oxa-1(5,3)-indola-6(1,3)-pyridazina-2(1,3)-benzenacycloundecaphane-4-yl)carbamate","ring closure, isolated yield","[1]; ester bond, EDCI/HOBt/DIPEA, DCM",51%
"tert-butyl ((6^3S,4S,Z)-1^1-ethyl-1^2-(2-((S)-1-methoxyethyl)pyridin-3-yl)-2^1,10,10-trimethyl-5,7-d ioxo-6^1,6^2,6^3,6^4,6^5,6^6-hexahydro-1^1H,2^1H-8-oxa-1(5,3)-indola-6(1,3)-pyridazina-2(5,3)-triazolacycloundecaphane-4-yl)carbamate","ring closure, isolated yield","[1]; cc_pd bond, XPhos Pd G3/XPhos/K3PO4, dioxane/H2O 5:1, 71.7 mM, 75.0 °C",56.8%
